Source: patent US9845319B2, “Amide substituted thiazoles as modulators of RORyt” (Janssen Pharmaceutica NV, priority 2014, dated 2017)

Experiments:
[1] = target: T1, human RORγt ligand binding domain (RORγt LBD) (Homo sapiens, UniProt P51449); experiment: RORγt ThermoFluor assay; conditions: estimated from thermal shift concentration response
T1 construct: His-tag (N); TurboTEV protease cleavage site (ENLYFQG) (N); made in house; host or cells: E. coli (pHIS1, a modified pET expression vector)
T1 sequence (P51449 with tags, fused parts or gaps): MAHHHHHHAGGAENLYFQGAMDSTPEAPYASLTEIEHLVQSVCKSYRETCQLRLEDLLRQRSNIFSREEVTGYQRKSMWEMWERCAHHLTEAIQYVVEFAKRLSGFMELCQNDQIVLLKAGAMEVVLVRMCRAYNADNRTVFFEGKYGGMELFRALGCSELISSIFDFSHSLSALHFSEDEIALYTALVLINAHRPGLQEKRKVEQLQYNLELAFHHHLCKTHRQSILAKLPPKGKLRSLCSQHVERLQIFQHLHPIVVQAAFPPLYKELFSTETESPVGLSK
Experimental: This approach is applicable to a wide variety of systems, and rigorous in theoretical interpretation through quantitation of equilibrium binding constants (KD).
The shift in the melting point described as a ΔTm is proportional to the concentration and affinity of the ligand.
Protein and compound solutions are dispensed into black 384-well polypropylene PCR microplates (Abgene) and overlayed with silicone oil (1 μL, Fluka, type DC 200) to prevent evaporation.
Bar-coded assay plates are robotically loaded onto a thermostatically controlled PCR-type thermal block and then heated at a typical ramp-rate of 1° C./min for all experiments.
Fluorescence was measured by continuous illumination with UV light (Hamamatsu LC6) supplied via fiber optic and filtered through a band-pass filter (380-400 nm; >6 OD cutoff). Fluorescence emission of the entire 384-well plate was detected by measuring light intensity using a CCD camera (Sensys, Roper Scientific) filtered to detect 500±25 nm, resulting in simultaneous and independent readings of all 384 wells. Images were collected at each temperature, and the sum of the pixel intensity in a given area of the assay plate was recorded versus temperature. Reference wells contained RORγt without compounds, and the assay conditions were as follows: • 0.065 mg/mL RORγt • 60 μM 1,8-ANS • 100 mM Hepes, pH 7.0 • 10 mM NaCl • 2.5 mM GSH • 0.002% Tween-20
Project compounds were arranged in a pre-dosed mother plate (Greiner Bio-one) wherein compounds are serially diluted in 100% DMSO by 1:2 from a high concentration of 10 mM over 12 columns within a series (column 12 is a reference well containing DMSO, no compound). The compounds were robotically dispensed directly into assay plates (1×=46 nL) using a Hummingbird capillary liquid handling instrument (Digilab). Following compound dispense, protein and dye in buffer was added to achieve the final assay volume of 3 μL, followed by 1 μL of silicone oil.

[2] = target: T2, full-length human RORγt (Homo sapiens, UniProt P51449); experiment: RORγt (full-length human) Reporter Assay, Conditions A; assay type: cell-based; conditions: for IC50: HEK293T cells, GAL4-DBD-RORγt, luciferase, read-out: RORγt (FL) Reporter Assay A, IC50; for inhibition at 6 µM: read-out: RORγt (FL) Reporter Assay A, % inhibition @ 6 μM, 6 μM compound; for inhibition at 0.67 µM: 0.67 μM compound concentration, read-out: RORγt (FL) Reporter Assay A, % inhibition (** at 0.67 μM)
T2 construct: expressed in transfected cells; host or cells: HEK293T, transiently transfected with pCMV-BD-ROR
T2 sequence (P51449 1-497 isoform P51449-2): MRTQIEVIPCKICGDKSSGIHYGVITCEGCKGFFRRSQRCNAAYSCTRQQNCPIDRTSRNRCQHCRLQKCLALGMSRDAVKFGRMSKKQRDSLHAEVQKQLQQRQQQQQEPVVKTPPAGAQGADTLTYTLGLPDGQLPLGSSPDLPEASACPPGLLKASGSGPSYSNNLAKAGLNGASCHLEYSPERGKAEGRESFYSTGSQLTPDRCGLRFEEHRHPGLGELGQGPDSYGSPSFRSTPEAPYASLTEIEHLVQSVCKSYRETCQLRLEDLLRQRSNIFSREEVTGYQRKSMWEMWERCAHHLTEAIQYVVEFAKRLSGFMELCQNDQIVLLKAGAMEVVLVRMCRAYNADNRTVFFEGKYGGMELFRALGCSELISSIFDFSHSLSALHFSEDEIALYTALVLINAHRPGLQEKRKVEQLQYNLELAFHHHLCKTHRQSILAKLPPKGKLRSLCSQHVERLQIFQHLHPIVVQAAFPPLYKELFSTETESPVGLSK
Experimental: After overnight (16 to 20 hours) incubation, media were removed and cells were lysed with 20 μL 1× Passive Lysis Buffer (Promega) for 10-15 minutes. Luminescence was measured using a BMG LUMIstar OPTIMA plate reader, after addition of 75 μL/well firefly luciferase buffer, followed by 75 μL/well Renilla luciferase buffer. To calculate the effect of compounds on RORγt activity, firefly values were normalized against values of DMSO only and values of reference compound at saturating concentration, then further normalized against Renilla signals. IC50s were generated by plotting final Renilla normalized data against compound concentration and percent inhibition was calculated against DMSO control.

Kd [1] [nM]	IC50 [2] [nM]	inhibition at 6 µM [2] [%]	inhibition at 0.67 µM [2] [%]	inhibition at 2 µM ([2]; read-out: RORγt (FL) Reporter Assay A, % inhibition (* at 2 μM), 2 μM compound concentration (footnote *)) [%]	Structure (SMILES)
1	10	106	–	–	CC[C@H](NS(=O)(=O)c1ccc(-c2sc(-c3nnc(CC(C)(C)C#N)o3)nc2C(=O)N2CCC(F)CC2)c(Cl)c1Cl)C(F)(F)F [Example 1/1, (S)-2,3-Dichloro-4-(2-(5-(2-cyano-2-methylpropyl)-1,3,4-oxadiazol-2-yl)-4-(4-fluoropiperidine-1-carbonyl)thiazol-5-yl)-N-(1,1,1-trifluorobutan-2-yl)benzenesulfonamide]
0.42	11	–	105	–	COC1(c2nnc(-c3nc(C(=O)N4CCC(F)(F)CC4)c(-c4ccc(S(=O)(=O)N[C@@H](C)C(F)(F)F)c(Cl)c4Cl)s3)o2)CC1 [Example 1/2, (S)-2,3-Dichloro-4-(4-(4,4-difluoropiperidine-1-carbonyl)-2-(5-(1-methoxycyclopropyl)-1,3,4-oxadiazol-2-yl)thiazol-5-yl)-N-(1,1,1-trifluoropropan-2-yl)benzenesulfonamide]
0.7	4.5	–	103	–	C[C@H](NS(=O)(=O)c1ccc(-c2sc(-c3nnc(C4(C(F)(F)F)CC4)o3)nc2C(=O)N2CCC(F)(F)CC2)c(Cl)c1Cl)C(F)(F)F [Example 1/3, (S)-2,3-Dichloro-4-(4-(4,4-difluoropiperidine-1-carbonyl)-2-(5-(1-(trifluoromethyl)cyclopropyl)-1,3,4-oxadiazol-2-yl)thiazol-5-yl)-N-(1,1,1-trifluoropropan-2-yl)benzenesulfonamide]
4.7	55	101	–	–	C[C@H](NS(=O)(=O)c1ccc(-c2sc(-c3nnc(CS(C)(=O)=O)o3)nc2C(=O)N2CCC(F)(F)CC2)c(Cl)c1Cl)C(F)(F)F [Example 1/4, (S)-2,3-Dichloro-4-(4-(4,4-difluoropiperidine-1-carbonyl)-2-(5-((methylsulfonyl)methyl)-1,3,4-oxadiazol-2-yl)thiazol-5-yl)-N-(1,1,1-trifluoropropan-2-yl)benzenesulfonamide]
0.003	100	104	–	–	CC[C@H](NS(=O)(=O)c1ccc(-c2sc(-c3nnc(CC(C)(C)C(=O)O)o3)nc2C(=O)N2CCCC[C@@H]2C)c(Cl)c1Cl)C(F)(F)F [Example 2, 3-(5-(5-(2,3-Dichloro-4-(N—((S)-1,1,1-trifluorobutan-2-yl)sulfamoyl)phenyl)-4-((S)-2-methylpiperidine-1-carbonyl)thiazol-2-yl)-1,3,4-oxadiazol-2-yl)-2,2-dimethylpropanoic acid]
0.98	230	102	–	–	C[C@H]1CCCCN1C(=O)c1nc(-c2nnc(CC(C)(C)C(=O)O)o2)sc1-c1ccc(C(O)(C(F)(F)F)C(F)(F)F)c(Cl)c1Cl [Example 2/1, (S)-3-(5-(5-(2,3-Dichloro-4-(1,1,1,3,3,3-hexafluoro-2-hydroxypropan-2-yl)phenyl)-4-(2-methylpiperidine-1-carbonyl)thiazol-2-yl)-1,3,4-oxadiazol-2-yl)-2,2-dimethylpropanoic acid]
–	–	–	–	102	CC[C@H](NS(=O)(=O)c1ccc(-c2sc(-c3nnc(C(C)(C)O)o3)nc2C(=O)N2CCC(F)CC2)c(Cl)c1Cl)C(F)(F)F [Example 6/1, (S)-2,3-Dichloro-4-(4-(4-fluoropiperidine-1-carbonyl)-2-(5-(2-hydroxypropan-2-yl)-1,3,4-oxadiazol-2-yl)thiazol-5-yl)-N-(1,1,1-trifluorobutan-2-yl)benzenesulfonamide]
–	9	104	–	–	CC[C@H](NS(=O)(=O)c1ccc(-c2sc(-c3noc(CC(C)(C)C(=O)O)n3)nc2C(=O)N2CCCC[C@@H]2C)c(Cl)c1Cl)C(F)(F)F [Example 10, 3-(3-(5-(2,3-Dichloro-4-(N—((S)-1,1,1-trifluorobutan-2-yl)sulfamoyl)phenyl)-4-((S)-2-methylpiperidine-1-carbonyl)thiazol-2-yl)-1,2,4-oxadiazol-5-yl)-2,2-dimethylpropanoic acid]
–	33	99	–	–	CC[C@H](NS(=O)(=O)c1ccc(-c2sc(-c3noc(CC(C)(C)C(=O)O)n3)nc2C(=O)N2CCCC[C@@H]2C)c(C(F)F)c1Cl)C(F)(F)F [Example 10/4, 3-(3-(5-(3-Chloro-2-(difluoromethyl)-4-(N—((S)-1,1,1-trifluorobutan-2-yl)sulfamoyl)phenyl)-4-((S)-2-methylpiperidine-1-carbonyl)thiazol-2-yl)-1,2,4-oxadiazol-5-yl)-2,2-dimethylpropanoic acid]
5.5	–	–	–	–	CC(C)(O)c1nnc(-c2nc(C(=O)N3CCC(F)(F)CC3)c(-c3ccc(C(O)(C(F)(F)F)C(F)(F)F)cc3C(F)F)s2)o1 [Example 28, (5-(2-(difluoromethyl)-4-(1,1,1,3,3,3-hexafluoro-2-hydroxypropan-2-yl)phenyl)-2-(5-(2-hydroxypropan-2-yl)-1,3,4-oxadiazol-2-yl)thiazol-4-yl)(4,4-difluoropiperidin-1-yl)methanone]
17	–	–	–	–	C[C@H]1CCCN1C(=O)c1nc(-c2nnc(C(C)(C)O)o2)sc1-c1ccc(C(O)(C(F)(F)F)C(F)(F)F)cc1C(F)F [Example 29, (S)-(5-(2-(difluoromethyl)-4-(1,1,1,3,3,3-hexafluoro-2-hydroxypropan-2-yl)phenyl)-2-(5-(2-hydroxypropan-2-yl)-1,3,4-oxadiazol-2-yl)thiazol-4-yl)(2-methylpyrrolidin-1-yl)methanone]
22	–	–	–	–	C[C@H]1CCCN1C(=O)c1nc(-c2noc(C(C)(C)O)n2)sc1-c1ccc(C(O)(C(F)(F)F)C(F)(F)F)cc1C(F)F [Example 30, (S)-(5-(2-(difluoromethyl)-4-(1,1,1,3,3,3-hexafluoro-2-hydroxypropan-2-yl)phenyl)-2-(5-(2-hydroxypropan-2-yl)-1,2,4-oxadiazol-3-yl)thiazol-4-yl)(2-methylpyrrolidin-1-yl)methanone]
18	–	–	–	–	Cc1cc(C(O)(C(F)(F)F)C(F)(F)F)ccc1-c1sc(-c2nnc(C(C)(C)O)o2)nc1C(=O)N1CCC[C@@H]1C [Example 31, (S)-(5-(4-(1,1,1,3,3,3-hexafluoro-2-hydroxypropan-2-yl)-2-methylphenyl)-2-(5-(2-hydroxypropan-2-yl)-1,3,4-oxadiazol-2-yl)thiazol-4-yl)(2-methylpyrrolidin-1-yl)methanone]
27	–	–	–	–	Cc1cc(C(O)(C(F)(F)F)C(F)(F)F)ccc1-c1sc(-c2noc(C(C)(C)O)n2)nc1C(=O)N1CCC[C@@H]1C [Example 32, (S)-(5-(4-(1,1,1,3,3,3-hexafluoro-2-hydroxypropan-2-yl)-2-methylphenyl)-2-(5-(2-hydroxypropan-2-yl)-1,2,4-oxadiazol-3-yl)thiazol-4-yl)(2-methylpyrrolidin-1-yl)methanone]
